Laboratory results taken from PMC8365446, “Structural determinants and distribution of phosphate specificity in ribonucleotide reductases” (The Journal of Biological Chemistry, 2021).
Read-outs that look alike come from different tables or passages of the source.

Assays:
TVNrdJm [1] = system: T1, TVNrdJm; details: read-out: apparent KM; effector dTTP, adenosylcobalamin, TCEP, 20 mmol L^−1 MgCl2, Tris pH 8.0, 40 °C; apparent fitted value, called lower boundary by authors (substrate inhibition omitted)
T1 construct: gene nrdJ

TVNrdJm [2] = system: T2, TVNrdJm; experiment: HPLC quantification of deoxyribonucleotide, Michaelis-Menten fit; format: biochemical, Thermus virus P74-23; details: effector dTTP, adenosylcobalamin, TCEP, 20 mmol L^−1 MgCl2, Tris pH 8.0, 40 °C
T2 construct: gene nrdJ; monomeric-type class II RNR; pET28b(+) NdeI/HindIII, E. coli BL21(DE3); apical loop P-A-G-R with A67, G68, R69

`Nc1nc2c(ncn2[C@@H]2O[C@H](COP(=O)(O)OP(=O)(O)O)[C@@H](O)[C@H]2O)c(=O)[nH]1` [GDP] was tested. Which Km (TVNrdJm [1]) did it give?
Its Km is > 6850 µM.

For `Nc1nc2c(ncn2[C@@H]2O[C@H](COP(=O)(O)OP(=O)(O)OP(=O)(O)O)[C@@H](O)[C@H]2O)c(=O)[nH]1` [GTP], which Km (TVNrdJm [2]) is on record?
Its Km is 300 ± 60 µM.
